Results: PubChem BioAssay (NCI)
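1) Cells in 96-well plates. 2) Compound, 48 h, 5 concentrations. 3) Linear interpolation between surrounding doses. 4) Unreached endpoint = highest concentration. The concentration for 50% growth inhibition is given as GI50. TGI denotes the concentration required for complete inhibition of growth.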

What was measured:
Experiment in all cases: NCI tumour cell line growth inhibition, 48 h
[1] = tested on: 786-0 renal
[2] = tested on: A498 renal
[3] = tested on: A549 NSCLC
[4] = tested on: ACHN renal
[5] = tested on: BT-549 breast
[6] = tested on: CAKI-1 renal
[7] = tested on: CCRF-CEM leukemia
[8] = tested on: COLO 205 colon
[9] = tested on: DU-145 prostate
[10] = tested on: EKVX NSCLC
[11] = tested on: HCC-2998 colon
[12] = tested on: HCT-116 colon
[13] = tested on: HCT-15 colon
[14] = tested on: HL-60(TB) leukemia
[15] = tested on: HOP-62 NSCLC
[16] = tested on: HOP-92 NSCLC
[17] = tested on: HS 578T breast
[18] = tested on: HT29 colon
[19] = tested on: IGROV1 ovarian
[20] = tested on: K-562 leukemia
[21] = tested on: KM12 colon
[22] = tested on: LOX IMVI melanoma
[23] = tested on: M14 melanoma
[24] = tested on: MALME-3M melanoma
[25] = tested on: MCF7 breast
[26] = tested on: MDA-MB-231 breast
[27] = tested on: MDA-MB-435
[28] = tested on: MOLT-4 leukemia
[29] = tested on: NCI-H226 lung
[30] = tested on: NCI-H23 lung
[31] = tested on: NCI-H460 lung
[32] = tested on: NCI-H522 lung
[33] = tested on: NCI/ADR-RES ovarian
[34] = tested on: OVCAR-3 ovarian
[35] = tested on: OVCAR-4 ovarian
[36] = tested on: OVCAR-5 ovarian
[37] = tested on: OVCAR-8 ovarian
[38] = tested on: PC-3 prostate
[39] = tested on: RPMI-8226 leukemia
[40] = tested on: RXF 393 renal
[41] = tested on: SF-268 CNS
[42] = tested on: SF-295 CNS
[43] = tested on: SF-539 CNS
[44] = tested on: SK-MEL-2 melanoma
[45] = tested on: SK-MEL-28 melanoma
[46] = tested on: SK-MEL-5 melanoma
[47] = tested on: SK-OV-3 ovarian
[48] = tested on: SN12C renal
[49] = tested on: SNB-19 CNS
[50] = tested on: SNB-75 CNS
[51] = tested on: SR leukemia
[52] = tested on: SW-620 colon
[53] = tested on: T-47D breast
[54] = tested on: TK-10 renal
[55] = tested on: U251 CNS
[56] = tested on: UACC-257 melanoma
[57] = tested on: UACC-62 melanoma
[58] = tested on: UO-31 renal

## CC1=C(CN(O)C(N)=O)C2=C(C)C3(CC3)[C@](C)(O)C(=O)C2=C1
[1]
  GI50: 2.36 µM
  TGI: 15.5 µM
[2]
  GI50: 1.35 µM
  TGI: 3.25 µM
[3]
  GI50: 3.03 µM
  TGI: > 100 µM
[4]
  GI50: 1.13 µM
  TGI: 8.69 µM
[5]
  GI50: 1.18 µM
  TGI: 3.18 µM
[6]
  GI50: 1.91 µM
  TGI: > 100 µM
[7]
  GI50: 2.22 µM
  TGI: > 100 µM
[8]
  GI50: 0.753 µM
  TGI: 4.58 µM
[9]
  GI50: 0.452 µM
  TGI: 26 µM
[10]
  GI50: 2.34 µM
  TGI: 6.85 µM
[11]
  GI50: 0.219 µM
  TGI: 0.54 µM
[12]
  GI50: 1.39 µM
[13]
  GI50: 1.29 µM
  TGI: 24.8 µM
[14]
  GI50: 0.952 µM
  TGI: > 100 µM
[15]
  GI50: 1.85 µM
  TGI: 58.7 µM
[16]
  GI50: 1.08 µM
  TGI: 4.21 µM
[17]
  GI50: 2.63 µM
  TGI: 9.16 µM
[18]
  GI50: 0.412 µM
  TGI: 13.9 µM
[19]
  GI50: 2.24 µM
  TGI: 6.38 µM
[20]
  GI50: 1.39 µM
  TGI: > 100 µM
[21]
  GI50: 0.798 µM
  TGI: 11.5 µM
[22]
  GI50: 6.38 µM
  TGI: 36.6 µM
[23]
  GI50: 0.819 µM
  TGI: 2.96 µM
[24]
  GI50: 1.83 µM
  TGI: 3.88 µM
[25]
  GI50: 0.366 µM
  TGI: > 100 µM
[26]
  GI50: 1.11 µM
  TGI: 5.88 µM
[27]
  GI50: 0.382 µM
  TGI: 1.43 µM
[28]
  GI50: 9.02 µM
  TGI: > 100 µM
[29]
  GI50: 2.03 µM
  TGI: 6.36 µM
[30]
  GI50: 2.28 µM
  TGI: 9.83 µM
[31]
  GI50: 2.55 µM
  TGI: > 100 µM
[32]
  GI50: 0.721 µM
  TGI: 4.6 µM
[33]
  GI50: 2 µM
  TGI: 31.2 µM
[34]
  GI50: 0.557 µM
  TGI: 4.15 µM
[35]
  GI50: 1.79 µM
  TGI: 9.19 µM
[36]
  GI50: 0.374 µM
  TGI: 5.07 µM
[37]
  GI50: 0.634 µM
  TGI: > 100 µM
[38]
  GI50: 1.46 µM
  TGI: 11.5 µM
[39]
  GI50: 0.348 µM
  TGI: 2.67 µM
[40]
  GI50: 0.328 µM
  TGI: 1.19 µM
[41]
  GI50: 1.72 µM
  TGI: > 100 µM
[42]
  GI50: 0.789 µM
  TGI: > 100 µM
[43]
  GI50: 2.08 µM
  TGI: 6.38 µM
[44]
  GI50: 2.11 µM
  TGI: 4.85 µM
[45]
  GI50: 0.732 µM
  TGI: 3 µM
[46]
  GI50: 5.61 µM
  TGI: 18.5 µM
[47]
  GI50: 2.62 µM
  TGI: 9.96 µM
[48]
  GI50: 2.62 µM
  TGI: > 100 µM
[49]
  GI50: 2.58 µM
  TGI: > 100 µM
[50]
  GI50: 1.28 µM
  TGI: 3.39 µM
[51]
  GI50: 0.896 µM
  TGI: > 100 µM
[52]
  GI50: 1.08 µM
  TGI: > 100 µM
[53]
  GI50: 0.992 µM
  TGI: > 100 µM
[54]
  GI50: 2.01 µM
  TGI: 8.02 µM
[55]
  GI50: 3.47 µM
  TGI: > 100 µM
[56]
  GI50: 3.02 µM
  TGI: 31.3 µM
[57]
  GI50: 1.29 µM
  TGI: 3.06 µM
[58]
  GI50: 0.254 µM
  TGI: 0.83 µM

## CCN1C(=O)N(CC)C2SC(N/N=C/c3ccccc3)=NC21 (centres undefined)
[1]
  GI50: 0.583 µM
  TGI: 44.5 µM
[2]
  GI50: 0.227 µM
  TGI: 0.785 µM
[3]
  GI50: 0.606 µM
  TGI: > 100 µM
[4]
  GI50: 0.943 µM
  TGI: > 100 µM
[5]
  GI50: 0.464 µM
  TGI: 2.3 µM
[6]
  GI50: 0.403 µM
  TGI: > 100 µM
[7]
  GI50: 0.342 µM
  TGI: > 100 µM
[8]
  GI50: 0.3 µM
  TGI: 0.945 µM
[9]
  GI50: 0.441 µM
  TGI: > 100 µM
[10]
  GI50: 0.583 µM
  TGI: > 100 µM
[11]
  GI50: 0.564 µM
  TGI: 34 µM
[12]
  GI50: 0.371 µM
  TGI: 19.8 µM
[13]
  GI50: 0.349 µM
  TGI: > 100 µM
[14]
  GI50: 0.257 µM
  TGI: 0.932 µM
[15]
  GI50: 0.567 µM
  TGI: > 100 µM
[16]
  GI50: 2.78 µM
  TGI: > 30.3 µM
[17]
  GI50: 0.312 µM
  TGI: > 100 µM
[18]
  GI50: 0.32 µM
  TGI: > 100 µM
[19]
  GI50: 0.622 µM
  TGI: > 100 µM
[20]
  GI50: 0.215 µM
  TGI: > 100 µM
[21]
  GI50: 0.148 µM
  TGI: > 100 µM
[22]
  GI50: 0.572 µM
  TGI: > 100 µM
[23]
  GI50: 0.234 µM
  TGI: 4.67 µM
[25]
  GI50: 0.301 µM
  TGI: > 100 µM
[26]
  GI50: 0.656 µM
  TGI: > 100 µM
[27]
  GI50: 0.0848 µM
  TGI: 0.317 µM
[28]
  GI50: 0.502 µM
  TGI: > 100 µM
[29]
  GI50: 0.754 µM
  TGI: > 100 µM
[30]
  GI50: 0.474 µM
  TGI: > 100 µM
[31]
  GI50: 0.367 µM
  TGI: > 34.2 µM
[32]
  GI50: 0.21 µM
  TGI: 0.735 µM
[33]
  GI50: 0.327 µM
  TGI: > 36.1 µM
[34]
  GI50: 0.395 µM
  TGI: > 100 µM
[35]
  GI50: > 88.9 µM
  TGI: > 100 µM
[36]
  GI50: 0.521 µM
  TGI: > 100 µM
[37]
  GI50: 0.473 µM
  TGI: > 100 µM
[38]
  GI50: 0.359 µM
  TGI: > 100 µM
[39]
  GI50: 0.381 µM
  TGI: > 100 µM
[40]
  GI50: 0.171 µM
  TGI: 0.503 µM
[41]
  GI50: 3.41 µM
  TGI: > 100 µM
[42]
  GI50: 0.282 µM
  TGI: > 71.6 µM
[43]
  GI50: 0.232 µM
  TGI: 0.683 µM
[44]
  GI50: 0.317 µM
  TGI: > 100 µM
[45]
  GI50: 1.68 µM
  TGI: > 100 µM
[46]
  GI50: 0.614 µM
  TGI: 22.7 µM
[47]
  GI50: 0.614 µM
  TGI: > 100 µM
[48]
  GI50: 0.557 µM
  TGI: > 100 µM
[49]
  GI50: 0.468 µM
  TGI: > 100 µM
[50]
  GI50: 0.173 µM
[51]
  GI50: 0.194 µM
  TGI: > 100 µM
[52]
  GI50: 0.394 µM
  TGI: > 100 µM
[54]
  TGI: > 100 µM
[55]
  GI50: 0.343 µM
  TGI: > 100 µM
[56]
  TGI: > 100 µM
[57]
  GI50: 0.39 µM
  TGI: > 100 µM
[58]
  GI50: 0.718 µM
  TGI: > 100 µM
